Measured values: patent US12325701B2, “YKL-40 inhibitors and their therapeutic” (Molecure S.A., priority 2022, dated 2025)
Where a name gives a salt, the structure may show the parent alone. Read-outs that look alike come from different tables or passages of the source.

Target: YKL-40 (YKL-40-histag, chitin binding site) (Homo sapiens (Human), UniProt P36222)
Test: YKL-40:4 assay, competitive chitin binding site AlphaScreen
[1] = competition with biotinylated compound 4, 20 nM, YKL-40-histag 2.5 nM, read-out: YKL-40:4, IC50/Kd (IC50 range)

Sequence of YKL-40 (YKL-40-histag, chitin binding site) (P36222 22-383): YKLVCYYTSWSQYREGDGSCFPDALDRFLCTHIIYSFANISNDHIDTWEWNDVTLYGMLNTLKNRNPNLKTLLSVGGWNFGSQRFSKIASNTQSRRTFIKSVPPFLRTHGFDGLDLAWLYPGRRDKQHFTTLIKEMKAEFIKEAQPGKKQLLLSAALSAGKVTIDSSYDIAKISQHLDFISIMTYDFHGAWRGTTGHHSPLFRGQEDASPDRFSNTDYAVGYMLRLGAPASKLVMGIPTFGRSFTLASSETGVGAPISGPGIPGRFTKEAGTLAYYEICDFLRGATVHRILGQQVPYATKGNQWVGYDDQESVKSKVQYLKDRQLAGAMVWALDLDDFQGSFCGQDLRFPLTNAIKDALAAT

Row | Structure (SMILES) | IC50 [1] [µM] | IC50 [µM]
1 | CC(C)C[C@H]1CN(C2CCN(c3ccccn3)CC2)[C@@H](Cc2ccc(Cl)cc2)CN1C(=O)OC(C)(C)C [Compound 2e, tert-butyl (2S,5S)-5-(4-chlorobenzyl)-2-isobutyl-4-(1-(pyridin-2-yl)piperidin-4-yl)piperazine-1-carboxylate] | > 10 | –
2 | CC(C)C[C@H]1CN(C2CCN(c3ccccn3)CC2)[C@@H](Cc2ccc(Cl)cc2)CN1CC(=O)OC(C)(C)C [Compound 2g, tert-butyl 2-((2S,5S)-5-(4-chlorobenzyl)-2-isobutyl-4-(1-(pyridin-2-yl)piperidin-4-yl)piperazin-1-yl)acetate] | – | > 10
3 | C[C@H]1CN(C2CCN(C(=O)OC(C)(C)C)CC2)[C@@H](Cc2ccc(Cl)cc2)CO1 [Compound 8d, tert-butyl 4-((2S,5S)-5-(4-chlorobenzyl)-2-methylmorpholino)piperidine-1-carboxylate] | – | > 10
4 | C[C@H]1CN(C2C[C@H]3CC[C@@H](C2)N3c2cc(Cl)ccn2)[C@@H](Cc2ccc(Cl)cc2)CO1 (stereo partly drawn) [Compound 58, (2S,5S)-5-(4-chlorobenzyl)-4-((1R,5S)-8-(4-chloropyridin-2-yl)-8-azabicyclo[3.2.1]octan-3-yl)-2-methylmorpholine 2,2,2-trifluoroacetate] | – | > 10
5 | Clc1ccc(C[C@H]2COc3ccccc3CN2C2CCN(c3ccccn3)CC2)cc1 [Compound 81, (S)-3-(4-chlorobenzyl)-4-(1-(pyridin-2-yl)piperidin-4-yl)-2,3,4,5-tetrahydrobenzof[1,4]oxazepine hydrochloride] | – | > 10
6 | CN1C[C@H](Cc2ccc(Cl)cc2)N(C2CCN(c3cc(Cl)ccn3)CC2)C[C@@H]1COc1ccc2ccccc2c1 [Compound 84, (2S,5R)-2-(4-chlorobenzyl)-1-(1-(4-chloropyridin-2-yl)piperidin-4-yl)-4-methyl-5-((naphthalen-2-yloxy)methyl)piperazine 2,2,2-trifluoroacetate] | – | > 10
7 | C[C@H]1CN(C2CCN(c3ncccc3C(N)=O)CC2)[C@@H](Cc2ccc(Cl)cc2)CO1 [Compound 114, 2-(4-((2S,5S)-5-(4-chlorobenzyl)-2-methylmorpholino)piperidin-1-yl)nicotinamide 2,2,2-trifluoroacetate] | – | > 10
8 | C[C@H]1CN(C2CCN(c3nccc4ccccc34)CC2)[C@@H](Cc2ccc(Cl)cc2)CO1 [Compound 116, (2S,5S)-5-(4-chlorobenzyl)-4-(1-(isoquinolin-1-yl)piperidin-4-yl)-2-methylmorpholine 2,2,2-trifluoroacetate] | – | > 10
9 | COC(=O)c1cccnc1N1CCC(N2C[C@H](C)OC[C@@H]2Cc2ccc(Cl)cc2)CC1 [Compound 117, methyl 2-(4-((2S,5S)-5-(4-chlorobenzyl)-2-methylmorpholino)piperidin-1-yl)nicotinate 2,2,2-trifluoroacetate] | – | > 10
10 | C[C@H]1CN(C2CCN(c3ncccc3CO)CC2)[C@@H](Cc2ccc(Cl)cc2)CO1 [Compound 120, (2-(4-((2S,5S)-5-(4-chlorobenzyl)-2-methylmorpholino)piperidin-1-yl)pyridin-3-yl)methanol 2,2,2-trifluoroacetate] | – | > 10
11 | COC(=O)c1ccnc(F)c1N1CCC(N2C[C@H](C)OC[C@@H]2Cc2ccc(Cl)cc2)CC1 [Compound 121, methyl 3-(4-((2S,5S)-5-(4-chlorobenzyl)-2-methylmorpholino)piperidin-1-yl)-2-fluoroisonicotinate] | > 10 | –
12 | COC(=O)c1ccnc(N2CCC(N3C[C@H](C)OC[C@@H]3Cc3ccc(Cl)cc3)CC2)c1F [Compound 122, methyl 2-(4-((2S,5S)-5-(4-chlorobenzyl)-2-methylmorpholino)piperidin-1-yl)-3-fluoroisonicotinate] | > 10 | –
13 | C[C@H]1CN(C2CCN(c3nccc(C(=O)O)c3F)CC2)[C@@H](Cc2ccc(Cl)cc2)CO1 [Compound 128, 2-(4-((2S,5S)-5-(4-chlorobenzyl)-2-methylmorpholino)piperidin-1-yl)-3-fluoroisonicotinic acid 2,2,2-trifluoroacetate] | – | > 10
14 | C[C@H]1CN(C2CCN(c3cc(C(N)=O)ccn3)CC2)[C@@H](Cc2ccc(Cl)cc2)CO1 [Compound 132, 2-(4-((2S,5S)-5-(4-chlorobenzyl)-2-methylmorpholino)piperidin-1-yl)isonicotinamide 2,2,2-trifluoroacetate] | – | > 10
15 | C[C@H]1CN(C2CCN(c3cc(C(F)(F)F)ncn3)CC2)[C@@H](Cc2ccc(Cl)cc2)CO1 [Compound 145, (2S,5S)-5-(4-chlorobenzyl)-2-methyl-4-(1-(6-(trifluoromethyl)pyrimidin-4-yl)piperidin-4-yl)morpholine hydrochloride] | > 10 | –
16 | O=C1COC[C@H](Cc2ccc(Cl)cc2)N1C1CCN(c2ccccn2)CC1 [Compound 147, (S)-5-(4-chlorobenzyl)-4-(1-(pyridin-2-yl)piperidin-4-yl)morpholin-3-one hydrochloride] | > 10 | –
17 | O=C1NCCN(C2CCN(c3ccccn3)CC2)[C@H]1Cc1ccc(Cl)cc1 [Compound 149, (S)-3-(4-chlorobenzyl)-4-(1-(pyridin-2-yl)piperidin-4-yl)piperazin-2-one 2,2,2-trifluoroacetate] | – | > 10
18 | CC(C)C1OC[C@H](Cc2ccc(Cl)cc2)N1C1CCN(c2ccccn2)CC1 (stereo partly drawn) [Compound 150, (4S)-4-(4-chlorobenzyl)-2-isopropyl-3-(1-(pyridin-2-yl)piperidin-4-yl)oxazolidine hydrochloride] | > 10 | –
19 | C[C@H]1CN(C2CCN(c3cncc(C(F)(F)F)n3)CC2)[C@@H](Cc2ccc(Cl)cc2)CO1 [Compound 153, (2S,5S)-5-(4-chlorobenzyl)-2-methyl-4-(1-(6-(trifluoromethyl)pyrazin-2-yl)piperidin-4-yl)morpholine hydrochloride] | > 10 | –
20 | C[C@H]1CN(C2CCN(c3cnc(C(F)(F)F)cn3)CC2)[C@@H](Cc2ccc(Cl)cc2)CO1 [Compound 158, (2S,5S)-5-(4-chlorobenzyl)-2-methyl-4-(1-(5-(trifluoromethyl)pyrazin-2-yl)piperidin-4-yl)morpholine hydrochloride] | > 10 | –

Now from value to molecule:

Row | IC50 [1] [µM] | IC50 [µM] | Structure (SMILES)
21 | > 10 | – | C[C@H]1CN(C2CCN(c3ccnc(Cl)n3)CC2)[C@@H](Cc2ccc(Cl)cc2)CO1 [Compound 66, (2S,5S)-5-(4-chlorobenzyl)-4-(1-(2-chloropyrimidin-4-yl)piperidin-4-yl)-2-methylmorpholine]
22 | – | > 10 | C[C@H]1CN(C2CCN(c3ccnc(N)n3)CC2)[C@@H](Cc2ccc(Cl)cc2)CO1 [Compound 67, 4-(4-((2S,5S)-5-(4-chlorobenzyl)-2-methylmorpholino)piperidin-1-yl)pyrimidin-2-amine 2,2,2-trifluoroacetate]
23 | – | > 10 | C[C@H]1CN(C2CCN(c3cc(Cl)ccc3C#N)CC2)[C@@H](Cc2ccc(Cl)cc2)CO1 [Compound 115, 4-chloro-2-(4-((2S,5S)-5-(4-chlorobenzyl)-2-methylmorpholino)piperidin-1-yl)benzonitrile 2,2,2-trifluoroacetate]
24 | – | > 10 | C[C@H]1CN(C2CCN(c3c(F)cccc3C#N)CC2)[C@@H](Cc2ccc(Cl)cc2)CO1 [Compound 118, 2-(4-((2S,5S)-5-(4-chlorobenzyl)-2-methylmorpholino)piperidin-1-yl)-3-fluorobenzonitrile 2,2,2-trifluoroacetate]
25 | – | > 10 | C[C@H]1CN(C2CCN(c3ccccc3C#N)CC2)[C@@H](Cc2ccc(Cl)cc2)CO1 [Compound 119, 2-(4-((2S,5S)-5-(4-chlorobenzyl)-2-methylmorpholino)piperidin-1-yl)benzonitrile 2,2,2-trifluoroacetate]
26 | – | > 10 | C[C@H]1CN(C2CCN(c3c(F)cccc3F)CC2)[C@@H](Cc2ccc(Cl)cc2)CO1 [Compound 123, (2S,5S)-5-(4-chlorobenzyl)-4-(1-(2,6-difluorophenyl)piperidin-4-yl)-2-methylmorpholine 2,2,2-trifluoroacetate]
27 | > 10 | – | COC(=O)c1ccnc(N2CCC(N3C[C@H](C)OC[C@@H]3Cc3ccc(Cl)cc3)CC2)c1 [Compound 124, methyl 2-(4-((2S,5S)-5-(4-chlorobenzyl)-2-methylmorpholino)piperidin-1-yl)isonicotinate]
28 | – | > 10 | C[C@H]1CN(C2CCN(c3cc(C(=O)O)ccn3)CC2)[C@@H](Cc2ccc(Cl)cc2)CO1 [Compound 125, 2-(4-((2S,5S)-5-(4-chlorobenzyl)-2-methylmorpholino)piperidin-1-yl)isonicotinic acid 2,2,2-trifluoroacetate]
29 | – | > 10 | C[C@H]1CN(C2CCN(c3ccccc3F)CC2)[C@@H](Cc2ccc(Cl)cc2)CO1 [Compound 126, (2S,5S)-5-(4-chlorobenzyl)-4-(1-(2-fluorophenyl)piperidin-4-yl)-2-methylmorpholine 2,2,2-trifluoroacetate]
30 | – | > 10 | C[C@H]1CN(C2CCN(c3cccc(F)c3)CC2)[C@@H](Cc2ccc(Cl)cc2)CO1 [Compound 127, (2S,5S)-5-(4-chlorobenzyl)-4-(1-(3-fluorophenyl)piperidin-4-yl)-2-methylmorpholine 2,2,2-trifluoroacetate]
31 | – | > 10 | C[C@H]1CN(C2CCN(c3cc(CO)ccn3)CC2)[C@@H](Cc2ccc(Cl)cc2)CO1 [Compound 130, (2-(4-((2S,5S)-5-(4-chlorobenzyl)-2-methylmorpholino)piperidin-1-yl)pyridin-4-yl)methanol 2,2,2-trifluoroacetate]
32 | – | > 10 | C[C@H]1CN(C2CCN(c3cc(C(C)(C)O)ccn3)CC2)[C@@H](Cc2ccc(Cl)cc2)CO1 [Compound 131, 2-(2-(4-((2S,5S)-5-(4-chlorobenzyl)-2-methylmorpholino)piperidin-1-yl)pyridin-4-yl)propan-2-ol 2,2,2-trifluoroacetate]
33 | > 10 | – | Cc1cccc(N2CCC(N3C[C@H](C)OC[C@@H]3Cc3ccc(Cl)cc3)CC2)n1 [Compound 135, (2S,5S)-5-(4-chlorobenzyl)-2-methyl-4-(1-(6-methylpyridin-2-yl)piperidin-4-yl)morpholine hydrochloride]
34 | > 10 | – | Cc1ccc(N2CCC(N3C[C@H](C)OC[C@@H]3Cc3ccc(Cl)cc3)CC2)nc1 [Compound 136, (2S,5S)-5-(4-chlorobenzyl)-2-methyl-4-(1-(5-methylpyridin-2-yl)piperidin-4-yl)morpholine hydrochloride]
